From patent publication EP2604265A1, “P2x7 antagonists as frontline or adjunctive treatment against status epilepticus” (Royal College of Surgeons in Ireland (RCSI), priority 2011, dated 2013)

Test system: IL-1β
Assay: Western blot of hippocampal IL-1β after SE
Assay type: in vivo, mice
Settings: ipsilateral hippocampus, 24 h after KA
Protocol: Adult male C57BL/6 mice (20-25 g) were obtained from Harlan UK (Blackthorn, UK). Mice were first anesthetized using isoflurane (3-5%) and maintained normothermic by means of a feedback-controlled heat blanket (Harvard Apparatus Ltd, Kent, UK). Mice were next placed in a stereotaxic frame and three partial craniectomies performed to affix cortical skull-mounted EEG electrodes (Bilaney Consultants Ltd, Sevenoaks, UK). EEG was recorded using a Grass Comet XL digital EEG (Medivent Ltd, Lucan, Ireland). A guide cannula was affixed (coordinates from Bregma: AP = 0.94; L = 2.85 mm) and the assembly fixed in place with dental cement. Anesthesia was then discontinued and freely moving mice were placed inside a clear perspex recording chamber. […]
Western blotting was performed as previously described (Engel et al., 2010). […] Protein concentration was determined and then 20 or 50 µg samples boiled in gel-loading buffer and separated by 10, 12 or 15% sodium dodecyl sulphate-polyacrylamide gel electrophoresis. […] Gel band image densities were captured using a Fuji-film LAS-3000 and analyzed using Alpha-EaseFC4.0 software as described (Engel et al., 2010).

`CCOc1ccc(Nc2ccc(C(=C3C=CC(=[N+](CC)Cc4cccc(S(=O)(=O)[O-])c4)C=C3C)c3ccc(N(CC)Cc4cccc(S(=O)(=O)O)c4)cc3C)cc2)cc1` [BBG, Brilliant Blue G] was tested, and the “IL-1β induction after SE” value was “significantly reduced”.
